Assay results taken from patent US12421222B2 (AUGUSTINE THERAPEUTICS, priority 2021, dated 2025).

System: acetylated tubulin (Lys40) in HeLa cells
Assay: Acetylated α-tubulin measurement in vitro (immunocytochemistry)
Assay type: cell-based
Conditions: Homo sapiens, 6 hours incubation, acetylated tubulin (Lys40) by immunocytochemistry, read-out: IC50 (Tubulin deacetylation)
Experimental: HeLa cells were cultured in UltraCulture serum-free medium (Lonza) supplemented with 2 mM glutamine (Lonza). Assays were performed at 96-well or 384-well format, differences in assay protocols are detailed in Table 6. Cells per well were plated and incubated overnight at 37° C. overnight in a humidified atmosphere containing 5% CO2. Cell density and seeding volumes are detailed in Table 6. Compounds (dissolved in 100% DMSO) or DMSO (vehicle) were added manually by diluting them in culture medium at 10× final assay concentration and adding 10 μL to cells (96-well protocol). Alternatively, 50 nL compound was added directly to the cell culture using the Echo650 (Labcyte) (384-well protocol). In this assay, the final assay concentration of DMSO is 0.1%-0.4%. Trichostatin A (TSA) was used as a positive control. Cells were incubated with compounds at 37° C. in a humidified atmosphere containing 5% CO2 for 6 hours. Levels of acetylated tubulin (Lys40) were assessed by immunocytochemistry using target-specific antibodies. Cells were fixed with 4% PFA at RT as detailed in Table 6. After 2-3 wash steps with PBS, cells were permeabilized with 0.5% Triton in PBS at RT for 10 minutes followed by 1-2 washes with PBS. To avoid non-specific antibody staining, cells were blocked with 3% BSA in PBS at room temperature for 1 hour. […] Cells were washed 2-3 times with PBS and labelled for 1 h at RT with goat anti-mouse conjugated with Alexa 647 (Thermofisher) and goat anti-rabbit conjugated with Alexa 555 (Thermofisher) secondary antibodies, diluted in 1% BSA to a final concentration of 1:1000. Simultaneously, nuclei were stained with 1:10000-1:15000 Hoechst (Thermofisher). Incubation time and temperature of the primary antibodies are detailed in Table 6. Cells were washed 2-3 times with PBS and they were imaged with the Operetta CLS or Opera Phenix (PerkinElmer). Imaging is further detailed in Table 6. For imaging analysis, the Harmony analysis software (PerkinElmer) was used. Cytoplasmic (defined by total α-tubulin staining) intensities per well were used for α-tubulin (acetylated and total) quantification. Intensities were measured per cell and then averaged per well. Mean intensity levels of acetylated tubulin were normalized to the mean intensity levels of total tubulin. The changes in acetylated tubulin were normalized for each plate using GraphPad Prism software: tubulin acetylation in vehicle (DMSO)-treated cells were set to 0% while tubulin acetylation in TSA-treated cells were set to 100%. EC50 values were calculated using the log(inhibitor) vs. response—Variable slope (four parameters) nonlinear regression in GraphPad Prism software.

IC50 [nM] | Compound
100 to 500 | CCS(=O)(=O)NCc1ccc(C(=O)CSc2nc(C(F)(F)F)nc3ncccc23)s1 [Example 127, N-((5-(2-((2-(trifluoromethyl)pyrido[2,3-d]pyrimidin-4-yl)thio)acetyl)thiophen-2-yl)methyl)ethanesulfonamide]
500 to 1000 | CS(=O)(=O)N1CCC(c2ccc(C(=O)CSc3nc(C(F)(F)F)nc4ccccc34)s2)C1 (centres unmarked) [Example 95, 1-(5-(1-(methylsulfonyl)161yrrolidine-3-yl)thiophen-2-yl)-2-((2-(trifluoromethyl)quinazolin-4-yl)thio)ethanone]
1000 to 3330 | Cn1cc2c(SCC(=O)c3ccc(CNC(=O)C4CC4)s3)nc(C(F)(F)F)nc2n1 [Example 41, N-((5-(2-((2-methyl-6-(trifluoromethyl)-2H-pyrazolo[3,4-d]pyrimidin-4-yl)thio)acetyl)thiophen-2-yl)methyl)cyclopropanecarboxamide]
100 to 500 | CCc1nc(SCC(=O)c2ccc(CNC(=O)CO)s2)c2ccccc2n1 [Example 62, N-((5-(2-((2-ethylquinazolin-4-yl)thio)acetyl)thiophen-2-yl)methyl)-2-hydroxyacetamide]
500 to 1000 | Cc1nnc(SCC(=O)c2ccc(CNC(=O)C(C)(C)C)s2)c2ccccc12 [Example 194, N-((5-(2-((4-methylphthalazin-1-yl)thio)acetyl)thiophen-2-yl)methyl)pivalamide]
1000 to 3330 | Cc1nc(SCC(=O)c2ccc(CNS(C)(=O)=O)s2)c2ccccc2n1 [Example 97, N-((5-(2-((2-methylquinazolin-4-yl)thio)acetyl)thiophen-2-yl)methyl)methanesulfonamide]
1000 to 3330 | CN(C)c1nc(SCC(=O)c2ccc(CNC(=O)C(C)(C)C)s2)c2ccccc2n1 [Example 16, N-((5-(2-((2-(dimethylamino)quinazolin-4-yl)thio)acetyl)thiophen-2-yl)methyl)pivalamide]
≤ 100 | O=C(CSc1nc(C(F)(F)F)nc2ncccc12)c1ccc(CN2CCCC2=O)s1 [Example 157, 1-((5-(2-((2-(trifluoromethyl)pyrido[2,3-d]pyrimidin-4-yl)thio)acetyl)thiophen-2-yl)methyl)pyrrolidin-2-one]
500 to 1000 | Cc1ccc2oc(SCC(=O)c3ccc(CNC(=O)C(C)(C)C)s3)nc2n1 [Example 23, N-((5-(2-((5-methyloxazolo[4,5-b]pyridine-2-yl)thio)acetyl)thiophen-2-yl)methyl)pivalamide]
100 to 500 | Cc1nc(SCC(=O)c2ccc(CNC(=O)C(C)(C)C)s2)c2cccnc2n1 [Example 7, N-((5-(2-((2-methylpyrido[2,3-d]pyrimidin-4-yl)thio)acetyl)thiophen-2-yl)methyl)pivalamide]
1000 to 3330 | Cn1ncc2c(SCC(=O)c3ccc(CNC(=O)c4ccccc4)s3)ncnc21 [Example 30, N-((5-(2-((1-methyl-1H-pyrazolo[3,4-d]pyrimidin-4-yl)thio)acetyl)thiophen-2-yl)methyl)benzamide]
≤ 100 | O=C(CO)NCc1ccc(C(=O)CSc2nc(C(F)(F)F)nc3ncccc23)s1 [Example 113, 2-hydroxy-N-((5-(2-((2-(trifluoromethyl)pyrido[2,3-d]pyrimidin-4-yl)thio)acetyl)thiophen-2-yl)methyl)acetamide]
100 to 500 | Cn1cc2c(SCC(=O)c3ccc(CNC(=O)C(C)(C)C)s3)nc(C(F)(F)F)nc2n1 [Example 22, N-((5-(2-((2-methyl-6-(trifluoromethyl)-2H-pyrazolo[3,4-d]pyrimidin-4-yl)thio)acetyl)thiophen-2-yl)methyl)pivalamide]
100 to 500 | Cc1nc(SCC(=O)c2ccc(CNC(=O)CO)s2)c2ccc(F)cc2n1 [Example 68, N-((5-(2-((7-fluoro-2-methylquinazolin-4-yl)thio)acetyl)thiophen-2-yl)methyl)-2-hydroxyacetamide]
≤ 100 | O=C(CO)NCc1ccc(C(=O)CSc2nc3cc(C(F)(F)F)ncc3o2)s1 [Example 71, 2-hydroxy-N-((5-(2-((6-(trifluoromethyl)oxazolo[5,4-c]156yrrolid-2-yl)thio)acetyl)thiophen-2-yl)methyl)acetamide]
100 to 500 | Cc1nc(SCC(=O)c2ccc(CNC(=O)CO)s2)c2cc(NCC3CC3)ccc2n1 [Example 78, N-((5-(2-((6-((cyclopropylmethyl)amino)-2-methylquinazolin-4-yl)thio)acetyl)thiophen-2-yl)methyl)-2-hydroxyacetamide]
1000 to 3330 | Cn1ncc2c(SCC(=O)c3ncc(CNC(=O)C(C)(C)C)s3)ncnc21 [Example 27, N-((2-(2-((1-methyl-1H-pyrazolo[3,4-d]pyrimidin-4-yl)thio)acetyl)thiazol-5-yl)methyl)pivalamide]
100 to 500 | CN(Cc1ccc(C(=O)CSc2nc(C(F)(F)F)nc3ncccc23)s1)C(=O)CO [Example 131, 2-hydroxy-N-methyl-N-((5-(2-((2-(trifluoromethyl)pyrido[2,3-d]pyrimidin-4-yl)thio)acetyl)thiophen-2-yl)methyl)acetamide]
100 to 500 | Cn1cc2c(SCC(=O)c3ccc(CNC(=O)C(C)(C)O)s3)nc(C(F)(F)F)nc2n1 [Example 48, 2-hydroxy-2-methyl-N-((5-(2-((2-methyl-6-(trifluoromethyl)-2H-pyrazolo[3,4-d]pyrimidin-4-yl)thio)acetyl)thiophen-2-yl)methyl)propanamide]
100 to 500 | O=C(CO)NCc1ccc(C(=O)CSc2nccc3ccncc23)s1 [Example 180, N-((5-(2-((2,7-naphthyridin-1-yl)thio)acetyl)thiophen-2-yl)methyl)-2-hydroxyacetamide]
≤ 100 | Cc1nc(SCC(=O)c2ccc(CNC(=O)CO)s2)c2cc(C(F)(F)F)ccc2n1 [Example 76, 2-hydroxy-N-((5-(2-((2-methyl-6-(trifluoromethyl)quinazolin-4-yl)thio)acetyl)thiophen-2-yl)methyl)acetamide]
100 to 500 | COc1cnc2nc(C)nc(SCC(=O)c3ccc(CNC(=O)OC(C)(C)C)s3)c2c1 [Example 190, tert-butyl ((5-(2-((6-methoxy-2-methylpyrido[2,3-d]pyrimidin-4-yl)thio)acetyl)thiophen-2-yl)methyl)carbamate]
100 to 500 | C[C@H](NC(=O)CO)c1ccc(C(=O)CSc2nc(C(F)(F)F)nc3c2cnn3C)s1 [Example 130, (S)-2-hydroxy-N-(1-(5-(2-((1-methyl-6-(trifluoromethyl)-1H-pyrazolo[3,4-d]pyrimidin-4-yl)thio)acetyl)thiophen-2-yl)ethyl)acetamide]
1000 to 3330 | Cn1ncc2c(SCC(=O)c3ccc(CNC(=O)C(C)(C)C)s3)nc(C(F)F)nc21 [Example 21, N-((5-(2-((6-(difluoromethyl)-1-methyl-1H-pyrazolo[3,4-d]pyrimidin-4-yl)thio)acetyl)thiophen-2-yl)methyl)pivalamide]
100 to 500 | COc1cnc2nc(C)nc(SCC(=O)c3ccc(CN4CCOCC4=O)s3)c2c1 [Example 161, 4-((5-(2-((6-methoxy-2-methylpyrido[2,3-d]pyrimidin-4-yl)thio)acetyl)thiophen-2-yl)methyl)morpholin-3-one]
≤ 100 | COc1cnc2nc(C(F)F)nc(SCC(=O)c3ccc(CNC(=O)CO)s3)c2c1 [Example 164, N-((5-(2-((2-(difluoromethyl)-6-methoxypyrido[2,3-d]pyrimidin-4-yl)thio)acetyl)thiophen-2-yl)methyl)-2-hydroxyacetamide]
